Reference: patent US11292770B2, “Pyridazinone herbicides” (FMC Corporation, priority 2017, dated 2022)

Assays:
Format in all cases: in vivo
[1] = tested on: barnyardgrass (Echinochloa crus-galli); assay: Test A preemergence, barnyardgrass; settings: 0 to 100 scale
Description: (§1) Seeds of plant species selected from barnyardgrass (Echinochloa crus-galli), kochia (Kochia scoparia), ragweed (common ragweed, Ambrosia elation), ryegrass, Italian (Italian ryegrass, Lolium multiflorum), foxtail, green (green foxtail, Setaria viridis), and pigweed (Amaranthus retroflexus) were planted into a blend of loam soil and sand and treated preemergence with a directed soil spray using test chemicals formulated in a non-phytotoxic solvent mixture which included a surfactant. At the same time, plants selected from these weed species and also wheat (Triticum aestivum), corn (Zea mays), blackgrass (Alopecurus myosuroides), and galium (catchweed bedstraw, Galium aparine) were planted in pots containing the same blend of loam soil and sand and treated with postemergence applications of test chemicals formulated in the same manner Plants ranged in height from 2 to 10 cm and were in the one- to two-leaf stage for the postemergence treatment. Treated plants and untreated controls were maintained in a greenhouse for approximately 10 d, after which time all treated plants were compared to untreated controls and visually evaluated for injury. Plant response ratings, summarized in Table A, are based on a 0 to 100 scale where 0 is no effect and 100 is complete control. A dash (—) response means no test result.

[2] = tested on: wheat (Triticum aestivum); assay: Test A postemergence, wheat; settings: 0 to 100 scale
Description: as §1

[3] = tested on: pigweed (Amaranthus retroflexus); assay: Test A postemergence, pigweed; settings: 0 to 100 scale
Description: as §1

[4] = tested on: pigweed (Amaranthus retroflexus); assay: Test A preemergence, pigweed; settings: 0 to 100 scale
Description: as §1

[5] = tested on: ragweed (common ragweed, Ambrosia elation); assay: Test A preemergence, ragweed; settings: 0 to 100 scale
Description: as §1

[6] = tested on: ryegrass, Italian (Italian ryegrass, Lolium multiflorum); assay: Test A postemergence, ryegrass, Italian; settings: 0 to 100 scale
Description: as §1

[7] = tested on: ducksalad (Heteranthera limosa); assay: Test B flooded paddy test, ducksalad; settings: Flood, 250 g ai/ha; scale of 0 to 100
Protocol: (§2) Plant species in the flooded paddy test selected from rice (Oryza sativa), sedge, umbrella (small-flower umbrella sedge, Cyperus difformis), ducksalad (Heteranthera limosa), and barnyardgrass (Echinochloa crus-galli) were grown to the 2-leaf stage for testing. At the time of treatment, test pots were flooded to 3 cm above the soil surface, treated by application of test compounds directly to the paddy water, and then maintained at that water depth for the duration of the test. Treated plants and controls were maintained in a greenhouse for 13 to 15 d, after which time all species were compared to controls and visually evaluated. Plant response ratings, summarized in Table B, are based on a scale of 0 to 100 where 0 is no effect and 100 is complete control. A dash (—) response means no test result.

[8] = tested on: galium (catchweed bedstraw, Galium aparine); assay: Test A postemergence, galium; settings: 0 to 100 scale
Description: as §1

Foxtail, Giant [9] = assay: Test A postemergence, foxtail, giant; settings: 0 to 100 scale
rice (Oryza sativa) = assay: Test B flooded paddy test, rice; settings: Flood, 250 g ai/ha; scale of 0 to 100
Protocol: as §2

[10] = tested on: blackgrass (Alopecurus myosuroides); assay: Test A postemergence, blackgrass; settings: 0 to 100 scale
Description: as §1

[11] = tested on: barnyardgrass (Echinochloa crus-galli); assay: Test B flooded paddy test, barnyardgrass; settings: Flood, 250 g ai/ha; scale of 0 to 100, 0 no effect, 100 complete control
Protocol: as §2

[12] = tested on: ragweed (common ragweed, Ambrosia elation); assay: Test A postemergence, ragweed; settings: 0 to 100 scale
Description: as §1

Foxtail, Giant [13] = assay: Test A preemergence, foxtail, giant; settings: 0 to 100 scale
kochia (Kochia scoparia) [14] = assay: Test A preemergence, kochia; settings: 0 to 100 scale
Description: as §1

[15] = tested on: barnyardgrass (Echinochloa crus-galli); assay: Test A postemergence, barnyardgrass; settings: 0 to 100 scale
Description: as §1

kochia (Kochia scoparia) [16] = assay: Test A postemergence, kochia; settings: 0 to 100 scale
Description: as §1

corn (Zea mays) = assay: Test A postemergence, corn; settings: 0 to 100 scale
Description: as §1

[17] = tested on: ryegrass, Italian (Italian ryegrass, Lolium multiflorum); assay: Test A preemergence, ryegrass, Italian; settings: 0 to 100 scale
Description: as §1

[18] = tested on: sedge, umbrella (small-flower umbrella sedge, Cyperus difformis); assay: Test B flooded paddy test, sedge, umbrella; settings: Flood, 250 g ai/ha; scale of 0 to 100
Protocol: as §2

[19] = 125 g ai/ha, 0 no effect, 100 complete control

SMILES	Plant response rating, Barnyardgrass ([1]; 31 g ai/ha)	Plant response rating, Barnyardgrass ([1]; 125 g ai/ha)	Plant response rating, Wheat ([2]; 31 g ai/ha)	Plant response rating, Wheat ([2]; 125 g ai/ha)	Plant response rating, Pigweed ([3]; 31 g ai/ha)	Plant response rating, Pigweed ([3]; 125 g ai/ha)	Plant response rating, Pigweed ([4]; 31 g ai/ha)	Plant response rating, Pigweed ([4]; 125 g ai/ha)	Plant response rating, Ragweed ([5]; 31 g ai/ha)	Plant response rating, Ragweed ([5]; 125 g ai/ha)	Plant response rating, Ryegrass, Italian ([6]; 31 g ai/ha)	Plant response rating, Ryegrass, Italian ([6]; 125 g ai/ha)	Plant response rating, Ducksalad [7]	Plant response rating, Galium ([8]; 31 g ai/ha)	Plant response rating, Galium ([8]; 125 g ai/ha)	Plant response rating, Foxtail, Giant (Foxtail, Giant [9]; 31 g ai/ha)	Plant response rating, Foxtail, Giant (Foxtail, Giant [9]; 125 g ai/ha)	Plant response rating, Rice (rice (Oryza sativa))	Plant response rating, Blackgrass ([10]; 31 g ai/ha)	Plant response rating, Blackgrass ([10]; 125 g ai/ha)	also measured
CC(=O)Oc1c(Cl)nn(C)c(=O)c1-c1c2ccccc2cc2ccccc12 [Compound 6]	0	0	10	10	100	100	80	100	40	100	20	70	85	80	100	0	20	0	0	0	Plant response rating, Barnyardgrass [11]: 0; Plant response rating, Ragweed ([12]; 31 g ai/ha): 90; Plant response rating, Ragweed ([12]; 125 g ai/ha): 90; Plant response rating, Foxtail, Giant (Foxtail, Giant [13]; 31 g ai/ha): 0; Plant response rating, Foxtail, Giant (Foxtail, Giant [13]; 125 g ai/ha): 10; Plant response rating, Kochia (kochia (Kochia scoparia) [14]; 31 g ai/ha): 0; Plant response rating, Kochia (kochia (Kochia scoparia) [14]; 125 g ai/ha): 0; Plant response rating, Barnyardgrass ([15]; 31 g ai/ha): 0; Plant response rating, Barnyardgrass [15, 19]: 10; Plant response rating, Kochia (kochia (Kochia scoparia) [16]; 31 g ai/ha): 0; Plant response rating, Kochia (kochia (Kochia scoparia) [16]; 125 g ai/ha): 20; Plant response rating, Corn (corn (Zea mays); 31 g ai/ha): 0; Plant response rating, Corn (corn (Zea mays); 125 g ai/ha): 0; Plant response rating, Ryegrass, Italian ([17]; 31 g ai/ha): 30; Plant response rating, Ryegrass, Italian ([17]; 125 g ai/ha): 30; Plant response rating, Sedge, Umbrella [18]: 95
C1COCCN1.Cn1nc(Cl)c(O)c(-c2c3ccccc3cc3ccccc23)c1=O [Compound 7]	0	0	0	0	100	100	60	100	0	40	10	60	100	70	100	0	10	0	0	10	Plant response rating, Barnyardgrass [11]: 0; Plant response rating, Ragweed ([12]; 31 g ai/ha): 90; Plant response rating, Ragweed ([12]; 125 g ai/ha): 100; Plant response rating, Foxtail, Giant (Foxtail, Giant [13]; 31 g ai/ha): 0; Plant response rating, Foxtail, Giant (Foxtail, Giant [13]; 125 g ai/ha): 0; Plant response rating, Kochia (kochia (Kochia scoparia) [14]; 31 g ai/ha): 0; Plant response rating, Kochia (kochia (Kochia scoparia) [14]; 125 g ai/ha): 0; Plant response rating, Barnyardgrass ([15]; 31 g ai/ha): 0; Plant response rating, Barnyardgrass [15, 19]: 0; Plant response rating, Kochia (kochia (Kochia scoparia) [16]; 31 g ai/ha): 0; Plant response rating, Kochia (kochia (Kochia scoparia) [16]; 125 g ai/ha): 10; Plant response rating, Corn (corn (Zea mays); 31 g ai/ha): 10; Plant response rating, Corn (corn (Zea mays); 125 g ai/ha): 10; Plant response rating, Ryegrass, Italian ([17]; 31 g ai/ha): 0; Plant response rating, Ryegrass, Italian ([17]; 125 g ai/ha): 0; Plant response rating, Sedge, Umbrella [18]: 100
Cc1nn(C)c(=O)c(-c2c3ccccc3cc3ccccc23)c1O [Compound 8]	0	10	0	0	90	100	100	100	40	90	90	100	90	80	90	10	60	15	0	30	Plant response rating, Barnyardgrass [11]: 15; Plant response rating, Ragweed ([12]; 31 g ai/ha): 90; Plant response rating, Ragweed ([12]; 125 g ai/ha): 90; Plant response rating, Foxtail, Giant (Foxtail, Giant [13]; 31 g ai/ha): 0; Plant response rating, Foxtail, Giant (Foxtail, Giant [13]; 125 g ai/ha): 10; Plant response rating, Kochia (kochia (Kochia scoparia) [14]; 31 g ai/ha): 0; Plant response rating, Kochia (kochia (Kochia scoparia) [14]; 125 g ai/ha): 0; Plant response rating, Barnyardgrass ([15]; 31 g ai/ha): 10; Plant response rating, Barnyardgrass [15, 19]: 50; Plant response rating, Kochia (kochia (Kochia scoparia) [16]; 31 g ai/ha): 0; Plant response rating, Kochia (kochia (Kochia scoparia) [16]; 125 g ai/ha): 10; Plant response rating, Corn (corn (Zea mays); 31 g ai/ha): 10; Plant response rating, Corn (corn (Zea mays); 125 g ai/ha): 10; Plant response rating, Ryegrass, Italian ([17]; 31 g ai/ha): 10; Plant response rating, Ryegrass, Italian ([17]; 125 g ai/ha): 50; Plant response rating, Sedge, Umbrella [18]: 90
